What was measured:
[1] = test system: oligo-2: d(CGATGTACATCG)2; assay: UV thermal denaturation; format: binding
[2] = test system: oligo-2: d(CGATGTACATCG)2; assay: Fluorescence titration; format: binding; details: 20 °C, pH 7.2
[3] = test system: CCRF-CEM; assay: NCI-60 SRB growth assay; format: cell-based, human
[4] = test system: K-562; assay: NCI-60 SRB growth assay; format: cell-based, human; details: Homo sapiens
[5] = test system: MOLT-4; assay: NCI-60 SRB growth assay; format: cell-based, human
[6] = test system: RPMI-8226; assay: NCI-60 SRB growth assay; format: cell-based, human; details: RPMI-8226
[7] = test system: A549/ATCC; assay: NCI-60 SRB growth assay; format: cell-based, human
[8] = test system: HOP-92; assay: NCI-60 SRB growth assay; format: cell-based, human
[9] = test system: NCI-H226; assay: NCI-60 SRB growth assay; format: cell-based, human
[10] = test system: NCI-H460; assay: NCI-60 SRB growth assay; format: cell-based, human
[11] = test system: NCI-H522; assay: NCI-60 SRB growth assay; format: cell-based, human
[12] = test system: COLO 205; assay: NCI-60 SRB growth assay; format: cell-based, human; details: COLO 205
[13] = test system: HCC-2998; assay: NCI-60 SRB growth assay; format: cell-based, human
[14] = test system: HCT-15; assay: NCI-60 SRB growth assay; format: cell-based, human; details: HCT-15
[15] = test system: KM12; assay: NCI-60 SRB growth assay; format: cell-based, human
[16] = test system: SW-620; assay: NCI-60 SRB growth assay; format: cell-based, human; details: Homo sapiens
[17] = test system: SF-295; assay: NCI-60 SRB growth assay; format: cell-based, human
[18] = test system: SNB-75; assay: NCI-60 SRB growth assay; format: cell-based, human
[19] = test system: MALME-3M; assay: NCI-60 SRB growth assay; format: cell-based, human
[20] = test system: M14; assay: NCI-60 SRB growth assay; format: cell-based, human; details: M14
[21] = test system: SK-MEL-2; assay: NCI-60 SRB growth assay; format: cell-based, human
[22] = test system: UACC-62; assay: NCI-60 SRB growth assay; format: cell-based, human
[23] = test system: OVCAR-4; assay: NCI-60 SRB growth assay; format: cell-based, human
[24] = test system: NCI/ADR-RES; assay: NCI-60 SRB growth assay; format: cell-based, human
[25] = test system: ACHN; assay: NCI-60 SRB growth assay; format: cell-based, human
[26] = test system: CAKI-1; assay: NCI-60 SRB growth assay; format: cell-based, human
[27] = test system: SN12C; assay: NCI-60 SRB growth assay; format: cell-based, human
[28] = test system: UO-31; assay: NCI-60 SRB growth assay; format: cell-based, human
[29] = test system: DU-145; assay: NCI-60 SRB growth assay; format: cell-based, human
[30] = test system: MDA-MB-231/ATCC; assay: NCI-60 SRB growth assay; format: cell-based, human
[31] = test system: HS 578T; assay: NCI-60 SRB growth assay; format: cell-based, human
[32] = test system: BT-549; assay: NCI-60 SRB growth assay; format: cell-based, human; details: BT-549
[33] = test system: panel of 60 human cancer cell lines; assay: cells; details: read-out: GI50 concentration range

CCCCN1CCN(c2ccc3[nH]c(-c4ccc5[nH]c(-c6ccc(C(F)(F)F)cc6)nc5c4)nc3c2)CC1 [12b, 5-(5-(4-Butylpiperazin-1-yl)-1H-benzo[d]imidazol-2-yl)2(4(trifluoromethyl)phenyl)-1H-benzo[d]imidazole]
ΔTm ([1]; r = 0.5): 1 °C
Tm ([1]; r = 0.5, oligo 2.5 μM): 57.9 °C
Tm ([1]; r = 1): 58.9 °C
ΔTm ([1]; r = 1): 2 °C
Tm ([1]; r = 1.5): 58.9 °C
ΔTm ([1]; r = 1.5): 2 °C
Tm ([1]; r = 2.0): 59.9 °C
ΔTm ([1]; r = 2.0): 3 °C
Ka binding affinity with oligo-2 [2]: 2 × 10^6 M^1
TGI [3]: 1.03 µM
GI50 ([3]; Homo sapiens): 0.3 µM
CC50 ([3]; Homo sapiens, read-out: LC50): 5.04 µM
GI50 ([4]; K562): 0.22 µM
CC50 ([4]; K562, read-out: LC50): > 100 µM
GI50 ([5]; Homo sapiens, MOLT-4): 1.07 µM
CC50 ([5]; Homo sapiens, MOLT-4, read-out: LC50): 6.3 µM
TGI ([5]; MOLT-4): 2.5 µM
GI50 ([6]; Homo sapiens): 0.25 µM
TGI [6]: 0.62 µM
TGI ([7]; A549/ATCC): 1.19 µM
GI50 ([7]; Homo sapiens, A549): 0.35 µM
TGI ([8]; HOP-92): 2.78 µM
GI50 ([8]; Homo sapiens, HOP-92): 1.18 µM
CC50 ([8]; Homo sapiens, HOP-92, read-out: LC50): 6.5 µM
GI50 ([9]; Homo sapiens, NCI-H226): 1.57 µM
TGI ([9]; NCI–H226): 3.59 µM
GI50 ([10]; Homo sapiens, NCI-H460): 0.23 µM
CC50 ([10]; Homo sapiens, NCI-H460, read-out: LC50): 1.62 µM
TGI ([10]; NCI–H460): 0.5 µM
GI50 ([11]; Homo sapiens, NCI-H522): 1.6 µM
TGI ([11]; NCI–H522): 3.6 µM
TGI [12]: 3.1 µM
GI50 ([12]; Homo sapiens): 1.3 µM
TGI ([13]; HCC-2998): 3.5 µM
GI50 ([13]; Homo sapiens, HCC 2998): 1.8 µM
CC50 ([13]; Homo sapiens, HCC 2998, read-out: LC50): 6.6 µM
TGI [14]: 0.74 µM
GI50 ([14]; Homo sapiens): 0.27 µM
GI50 ([15]; Homo sapiens, KM12): 0.67 µM
CC50 ([15]; Homo sapiens, KM12, read-out: LC50): 4.9 µM
TGI ([15]; KM12): 2.04 µM
GI50 ([16]; SW-620): 0.21 µM
CC50 ([16]; SW-620, read-out: LC50): 0.45 µM
GI50 ([17]; Homo sapiens, SF-295): 1.34 µM
CC50 ([17]; Homo sapiens, SF-295, read-out: LC50): 5.4 µM
TGI ([17]; SF-265): 2.7 µM
GI50 ([18]; Homo sapiens, SNB-75): 1.05 µM
CC50 ([18]; Homo sapiens, SNB-75, read-out: LC50): 4.8 µM
TGI ([18]; SNB-75): 2.25 µM
GI50 ([19]; Homo sapiens, Malme-3M): 1.4 µM
TGI ([19]; MALME-3M): 3.0 µM
GI50 ([20]; Homo sapiens): 0.37 µM
TGI [20]: 2.4 µM
GI50 ([21]; Homo sapiens, SK-MEL-2): 1.8 µM
CC50 ([21]; Homo sapiens, SK-MEL-2, read-out: LC50): 6.3 µM
TGI ([21]; SK-MEL-2): 3.3 µM
GI50 ([22]; Homo sapiens, UACC-62): 1.5 µM
CC50 ([22]; Homo sapiens, UACC-62, read-out: LC50): 5.8 µM
TGI ([22]; UACC-62): 2.9 µM
GI50 ([23]; Homo sapiens, OVCAR-4): 0.6 µM
CC50 ([23]; Homo sapiens, OVCAR-4, read-out: LC50): 5.2 µM
TGI ([23]; OVCAR-4): 1.8 µM
TGI [24]: 57.7 µM
GI50 ([24]; Homo sapiens): 2.1 µM
CC50 ([24]; Homo sapiens, read-out: LC50): > 100 µM
TGI [25]: 2.6 µM
GI50 ([25]; Homo sapiens): 1.32 µM
CC50 ([25]; Homo sapiens, read-out: LC50): 5.14 µM
TGI ([26]; CAKI-1): 2.58 µM
GI50 ([26]; Homo sapiens, CAKI-1): 1.29 µM
CC50 ([26]; Homo sapiens, CAKI-1, read-out: LC50): 5.15 µM
GI50 ([27]; Homo sapiens, SN12C): 1.54 µM
TGI ([27]; SN12c): 3.02 µM
GI50 ([28]; Homo sapiens, UO-31): 1.77 µM
CC50 ([28]; Homo sapiens, UO-31, read-out: LC50): 5.9 µM
TGI ([28]; UO-31): 3.24 µM
TGI ([29]; DU-145): 1.68 µM
GI50 ([29]; Homo sapiens, DU-145): 0.45 µM
CC50 ([29]; Homo sapiens, DU-145, read-out: LC50): 4.3 µM
GI50 ([30]; Homo sapiens, MDA-MB-231): 1.46 µM
CC50 ([30]; Homo sapiens, MDA-MB-231, read-out: LC50): 5.84 µM
TGI ([30]; MDA-MB-231): 2.92 µM
TGI ([31]; HS578T): 3.05 - μM
GI50 ([31]; Homo sapiens, Hs-578T): 1.26 µM
TGI [32]: 3.15 µM
GI50 ([32]; Homo sapiens): 1.62 µM
GI50 [33]: 0.16 to 3.6 µM

Reference: publication PMC8793051 (ACS Omega, 2022)
